Measured values as given in ChEMBL document CHEMBL1201861, “Genomics of Drug Sensitity in Cancer screening data, Wellcome Trust Sanger Institute”.

What was measured:
Assay in all cases: cells
Assay type in all cases: functional, cell-based, Homo sapiens
COLO-829 = conditions: Homo sapiens, COLO-829
Description: SANGER: Inhibition of human COLO-829 cell growth in a cell viability assay.

D-392MG = conditions: Homo sapiens, D-392MG
DB = conditions: Homo sapiens, DB
Description: SANGER: Inhibition of human DB cell growth in a cell viability assay.

DEL = conditions: Homo sapiens, DEL;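 also: growth inhibition of the human DEL cell line, read out with a cell viability assay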
Description: SANGER: Inhibition of human DEL cell growth in a cell viability assay.

DOHH-2 = conditions: Homo sapiens, DOHH-2;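 also: growth inhibition of human DOHH-2 cells, read out with a cell viability assay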
Description: SANGER: Inhibition of human DOHH-2 cell growth in a cell viability assay.

EC-GI-10 = conditions: Homo sapiens, EC-GI-10
Description: SANGER: Inhibition of human EC-GI-10 cell growth in a cell viability assay.

EKVX = conditions: Homo sapiens, EKVX;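 also: growth inhibition of human EKVX cells, read out with a cell viability assay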
Description: SANGER: Inhibition of human EKVX cell growth in a cell viability assay.

ES4 = conditions: Homo sapiens, ES4;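 also: growth inhibition of human ES4 cells, read out by a cell viability assay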
Description: SANGER: Inhibition of human ES4 cell growth in a cell viability assay.

EW-18 = conditions: Homo sapiens, EW-18;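 also: growth inhibition of EW-18 cells, read out by a cell viability assay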
Description: SANGER: Inhibition of human EW-18 cell growth in a cell viability assay.

EW-24 = conditions: Homo sapiens, EW-24;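 also: human EW-24 cancer cell line, growth inhibition read out via a cell viability assay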
Description: SANGER: Inhibition of human EW-24 cell growth in a cell viability assay.

GR-ST = conditions: Homo sapiens, GR-ST
Description: SANGER: Inhibition of human GR-ST cell growth in a cell viability assay.

HCC1187 = conditions: Homo sapiens, HCC1187;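 also: growth inhibition of HCC1187 cells, read out with a cell viability assay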
Description: SANGER: Inhibition of human HCC1187 cell growth in a cell viability assay.

HCC2218 = conditions: Homo sapiens, HCC2218;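 also: cell viability assay read-out, with IC50 given as the concentration that inhibits growth of the cell line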
Description: SANGER: Inhibition of human HCC2218 cell growth in a cell viability assay.

HT-144 = conditions: Homo sapiens, HT-144
Description: SANGER: Inhibition of human HT-144 cell growth in a cell viability assay.

IST-SL1 = conditions: Homo sapiens, IST-SL1;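 also: growth inhibition of human IST-SL1 cells, read out with a cell viability assay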
Description: SANGER: Inhibition of human IST-SL1 cell growth in a cell viability assay.

J-RT3-T3-5 = conditions: Homo sapiens, J-RT3-T3-5;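 also: cell viability assay measuring growth inhibition of human J-RT3-T3-5 cells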
Description: SANGER: Inhibition of human J-RT3-T3-5 cell growth in a cell viability assay.

JVM-3 = conditions: Homo sapiens, JVM-3;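 also: growth inhibition of human JVM-3 cells, read out with a cell viability assay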
Description: SANGER: Inhibition of human JVM-3 cell growth in a cell viability assay.

KALS-1 = conditions: Homo sapiens, KALS-1;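 also: growth inhibition of KALS-1 cells, determined with a cell viability assay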
Description: SANGER: Inhibition of human KALS-1 cell growth in a cell viability assay.

KARPAS-45 = conditions: Homo sapiens, KARPAS-45;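 also: inhibition of cell line growth, read out through a viability assay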
Description: SANGER: Inhibition of human KARPAS-45 cell growth in a cell viability assay.

KE-37 = conditions: Homo sapiens, KE-37;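 also: growth inhibition of KE-37 cells, read out with a cell viability assay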
Description: SANGER: Inhibition of human KE-37 cell growth in a cell viability assay.

KGN = conditions: Homo sapiens, KGN;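 also: growth inhibition of KGN cells, read out with a cell viability assay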
Description: SANGER: Inhibition of human KGN cell growth in a cell viability assay.

KINGS-1 = conditions: Homo sapiens, KINGS-1;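 also: cell viability assay measuring suppression of KINGS-1 cell growth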
Description: SANGER: Inhibition of human KINGS-1 cell growth in a cell viability assay.

LB373-MEL-D = conditions: Homo sapiens, LB373-MEL-D;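 also: growth inhibition of the cell line, read out in a cell viability assay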
Description: SANGER: Inhibition of human LB373-MEL-D cell growth in a cell viability assay.

LS-1034 = conditions: Homo sapiens, LS-1034
Description: SANGER: Inhibition of human LS-1034 cell growth in a cell viability assay.

MFH-ino = conditions: Homo sapiens, MFH-ino;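 also: growth inhibition of human MFH-ino cells, read out by a cell viability assay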
Description: SANGER: Inhibition of human MFH-ino cell growth in a cell viability assay.

MMAC-SF = conditions: Homo sapiens, MMAC-SF;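 also: growth inhibition of human MMAC-SF cells, read out with a cell viability assay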
Description: SANGER: Inhibition of human MMAC-SF cell growth in a cell viability assay.

MN-60 = conditions: Homo sapiens, MN-60;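 also: growth inhibition of the MN-60 cell line, determined with a cell viability assay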
Description: SANGER: Inhibition of human MN-60 cell growth in a cell viability assay.

MOLT-16 = conditions: Homo sapiens, MOLT-16;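 also: growth inhibition of human MOLT-16 cells, read out with a cell viability assay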
Description: SANGER: Inhibition of human MOLT-16 cell growth in a cell viability assay.

NB5 = conditions: Homo sapiens, NB5;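 also: growth inhibition of NB5 cells, read out as cell viability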
Description: SANGER: Inhibition of human NB5 cell growth in a cell viability assay.

NCI-H1355 = conditions: Homo sapiens, NCI-H1355;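 also: growth inhibition of human NCI-H1355 cells, read out by a cell viability assay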
Description: SANGER: Inhibition of human NCI-H1355 cell growth in a cell viability assay.

NCI-H1581 = conditions: Homo sapiens, NCI-H1581;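 also: cell growth inhibition read out by a viability assay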
Description: SANGER: Inhibition of human NCI-H1581 cell growth in a cell viability assay.

NCI-H1648 = conditions: Homo sapiens, NCI-H1648;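 also: cell viability assay measuring inhibition of NCI-H1648 cell growth, from the Sanger screening data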
Description: SANGER: Inhibition of human NCI-H1648 cell growth in a cell viability assay.

SNU1 = conditions: Homo sapiens, SNU1;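 also: growth inhibition of human NCI-SNU-1 cells, measured with a cell viability assay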
Description: SANGER: Inhibition of human NCI-SNU-1 cell growth in a cell viability assay.

NOMO-1 = conditions: Homo sapiens, NOMO-1;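 also: growth inhibition of human NOMO-1 cells measured by a cell viability assay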
Description: SANGER: Inhibition of human NOMO-1 cell growth in a cell viability assay.

RH-1 = conditions: Homo sapiens, RH-1;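 also: growth inhibition of human RH-1 cells, read out with a cell viability assay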
Description: SANGER: Inhibition of human RH-1 cell growth in a cell viability assay.

RKO = conditions: Homo sapiens, RKO;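 also: growth inhibition of human RKO cells, read out with a cell viability assay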
Description: SANGER: Inhibition of human RKO cell growth in a cell viability assay.

RXF 393 = conditions: Homo sapiens, RXF 393;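 also: growth inhibition of human RXF 393 cells, read out with a cell viability assay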
Description: SANGER: Inhibition of human RXF393 cell growth in a cell viability assay.

Ramos-2G6-4C10 = conditions: Homo sapiens, Ramos-2G6-4C10;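 also: growth inhibition of the cell line, measured by a cell viability read-out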
Description: SANGER: Inhibition of human Ramos-2G6-4C10 cell growth in a cell viability assay.

SF-268 = conditions: Homo sapiens, SF-268;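 also: growth inhibition of SF-268 cells determined with a cell viability assay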
Description: SANGER: Inhibition of human SF268 cell growth in a cell viability assay.

SNB-75 = conditions: Homo sapiens, SNB-75;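 also: cell viability assay measuring growth inhibition of human SNB-75 cells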
Description: SANGER: Inhibition of human SNB75 cell growth in a cell viability assay.

SW684 = conditions: Homo sapiens, SW684;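 also: growth inhibition of human SW684 cells, measured by a cell viability assay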
Description: SANGER: Inhibition of human SW684 cell growth in a cell viability assay.

A101D = conditions: Homo sapiens, A101D;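 also: growth inhibition of the cell line, measured with a viability assay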
Description: SANGER: Inhibition of human A101D cell growth in a cell viability assay.

A253 cell line = conditions: Homo sapiens, A253;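 also: growth inhibition of A253 cells, read out with a cell viability assay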
Description: SANGER: Inhibition of human A253 cell growth in a cell viability assay.

BB30-HNC = conditions: Homo sapiens, BB30-HNC;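 also: growth inhibition of the cultured cell line, read out by a cell viability assay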
Description: SANGER: Inhibition of human BB30-HNC cell growth in a cell viability assay.

C2BBe1 = conditions: Homo sapiens, C2BBe1;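 also: growth inhibition of C2BBe1 cells, read out through a viability assay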
Description: SANGER: Inhibition of human C2BBe1 cell growth in a cell viability assay.

no-10 = conditions: Homo sapiens;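 also: growth inhibition of no-10 cells, read out with a cell viability assay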
Description: SANGER: Inhibition of human no-10 cell growth in a cell viability assay.

CCRF-CEM = conditions: Homo sapiens, CCRF-CEM;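 also: inhibition of CCRF-CEM cell growth, measured by a cell viability assay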
Description: SANGER: Inhibition of human CCRF-CEM cell growth in a cell viability assay.

COLO-320-HSR = conditions: Homo sapiens, COLO-320-HSR;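 also: growth inhibition of COLO-320-HSR cells, determined with a cell viability assay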
Description: SANGER: Inhibition of human COLO-320-HSR cell growth in a cell viability assay.

A704 = conditions: Homo sapiens, A704;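 also: growth inhibition of human A704 cells, read out with a cell viability assay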
Description: SANGER: Inhibition of human A704 cell growth in a cell viability assay.

COc1cc(N2CCN(C)CC2)ccc1Nc1ncc2c(n1)N(C)c1ccccc1C(=O)N2C
IC50 (COLO-829): > 8 µM
IC50 (D-392MG): > 8 µM
IC50 (DB): > 8 µM
IC50 (DEL): > 8 µM
IC50 (DOHH-2): 2570 nM
IC50 (EC-GI-10): > 8 µM
IC50 (EKVX): > 8000 nM
IC50 (ES4): > 8 µM
IC50 (EW-18): > 8 µM
IC50 (EW-24): > 8 µM
IC50 (GR-ST): 7.68 µM
IC50 (HCC1187): > 8 µM
IC50 (HCC2218): > 8 µM
IC50 (HT-144): > 8 µM
IC50 (IST-SL1): > 8 µM
IC50 (J-RT3-T3-5): > 8 µM
IC50 (JVM-3): > 8 µM
IC50 (KALS-1): 7.78 µM
IC50 (KARPAS-45): 3.97 µM
IC50 (KE-37): > 8 µM
IC50 (KGN): 2790 nM
IC50 (KINGS-1): > 8 µM
IC50 (LB373-MEL-D): > 8 µM
IC50 (LS-1034): > 8 µM
IC50 (MFH-ino): > 8 µM
IC50 (MMAC-SF): > 8 µM
IC50 (MN-60): > 8 µM
IC50 (MOLT-16): 2710 nM
IC50 (NB5): > 8 µM
IC50 (NCI-H1355): > 8 µM
IC50 (NCI-H1581): > 8 µM
IC50 (NCI-H1648): > 8 µM
IC50 (SNU1): > 8 µM
IC50 (NOMO-1): > 8 µM
IC50 (RH-1): > 8 µM
IC50 (RKO): 4.68 µM
IC50 (RXF 393): > 8 µM
IC50 (Ramos-2G6-4C10): 5.67 µM
IC50 (SF-268): 7.55 µM
IC50 (SNB-75): 7.34 µM
IC50 (SW684): > 8 µM
IC50 (A101D): 7.59 µM
IC50 (A253 cell line): > 8 µM
IC50 (BB30-HNC): 4.51 µM
IC50 (C2BBe1): > 8 µM
IC50 (no-10): > 8 µM
IC50 (CCRF-CEM): > 8 µM
IC50 (COLO-320-HSR): > 8 µM

C#Cc1cccc(Nc2ncnc3cc(OCCOC)c(OCCOC)cc23)c1 [ERLOTINIB]
IC50 (COLO-829): > 2 µM
IC50 (D-392MG): > 2 µM
IC50 (DEL): > 2 µM
IC50 (DOHH-2): > 2000 nM
IC50 (EC-GI-10): > 2 µM
IC50 (EKVX): 1120 nM
IC50 (ES4): > 2 µM
IC50 (EW-18): > 2 µM
IC50 (EW-24): 0.594 µM
IC50 (GR-ST): > 2 µM
IC50 (HCC1187): > 2 µM
IC50 (HCC2218): > 2 µM
IC50 (HT-144): > 2 µM
IC50 (IST-SL1): > 2 µM
IC50 (J-RT3-T3-5): > 2 µM
IC50 (JVM-3): > 2 µM
IC50 (KALS-1): > 2 µM
IC50 (KE-37): > 2 µM
IC50 (KGN): > 2000 nM
IC50 (KINGS-1): > 2 µM
IC50 (LB373-MEL-D): > 2 µM
IC50 (LS-1034): > 2 µM
IC50 (MFH-ino): > 2 µM
IC50 (MMAC-SF): > 2 µM
IC50 (MN-60): > 2 µM
IC50 (MOLT-16): 1930 nM
IC50 (NB5): > 2 µM
IC50 (NCI-H1355): > 2 µM
IC50 (NCI-H1581): > 2 µM
IC50 (NCI-H1648): 0.04 µM
IC50 (SNU1): > 2 µM
IC50 (NOMO-1): > 2 µM
IC50 (RH-1): > 2 µM
IC50 (RKO): > 2 µM
IC50 (RXF 393): > 2 µM
IC50 (Ramos-2G6-4C10): > 2 µM
IC50 (SF-268): > 2 µM
IC50 (SNB-75): > 2 µM
IC50 (SW684): > 2 µM
IC50 (A101D): > 2 µM
IC50 (A253 cell line): > 2 µM
IC50 (BB30-HNC): 0.148 µM
IC50 (C2BBe1): > 2 µM
IC50 (no-10): > 2 µM
IC50 (CCRF-CEM): > 2 µM
IC50 (COLO-320-HSR): > 2 µM

C=C(c1ccc(C(=O)O)cc1)c1cc2c(cc1C)C(C)(C)CCC2(C)C [BEXAROTENE]
IC50 (COLO-829): > 8 µM
IC50 (D-392MG): > 8 µM
IC50 (DB): > 8 µM
IC50 (DEL): > 8 µM
IC50 (DOHH-2): > 8000 nM
IC50 (EC-GI-10): > 8 µM
IC50 (EKVX): 165 nM
IC50 (ES4): 3.77 µM
IC50 (EW-18): > 8 µM
IC50 (EW-24): > 8 µM
IC50 (GR-ST): > 8 µM
IC50 (HCC1187): > 8 µM
IC50 (HCC2218): > 8 µM
IC50 (HT-144): > 8 µM
IC50 (IST-SL1): > 8 µM
IC50 (J-RT3-T3-5): > 8 µM
IC50 (JVM-3): > 8 µM
IC50 (KALS-1): > 8 µM
IC50 (KE-37): > 8 µM
IC50 (KGN): > 8000 nM
IC50 (KINGS-1): > 8 µM
IC50 (LB373-MEL-D): > 8 µM
IC50 (LS-1034): > 8 µM
IC50 (MFH-ino): 7.21 µM
IC50 (MMAC-SF): > 8 µM
IC50 (MN-60): > 8 µM
IC50 (MOLT-16): > 8000 nM
IC50 (NB5): > 8 µM
IC50 (NCI-H1355): > 8 µM
IC50 (NCI-H1581): > 8 µM
IC50 (NCI-H1648): > 8 µM
IC50 (SNU1): > 8 µM
IC50 (NOMO-1): > 8 µM
IC50 (RH-1): > 8 µM
IC50 (RKO): > 8 µM
IC50 (RXF 393): > 8 µM
IC50 (Ramos-2G6-4C10): > 8 µM
IC50 (SF-268): > 8 µM
IC50 (SNB-75): > 8 µM
IC50 (SW684): > 8 µM
IC50 (A101D): > 8 µM
IC50 (A253 cell line): > 8 µM
IC50 (A704): > 8 µM
IC50 (BB30-HNC): > 8 µM
IC50 (C2BBe1): > 8 µM
IC50 (no-10): > 8 µM
IC50 (CCRF-CEM): > 8 µM
IC50 (COLO-320-HSR): > 8 µM
